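In this assay, cells in 96-well plates receive the compound at five concentrations for 48 hours. Endpoints are linearly interpolated between the surrounding concentrations. GI50: concentration for 50% inhibition of growth.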 Active and inactive are the calls of the source. Rule as the data show it: active = GI50 up to about 1.1 µM and inactive = higher.
Columns and labels:
Assay in all cases: inhibition of tumour cell growth, NCI panel, 48 h
786-0 = tested on: 786-0
A498 = tested on: A498
A549 = tested on: A549
ACHN = tested on: ACHN
CAKI-1 = tested on: CAKI-1
CCRF-CEM = tested on: CCRF-CEM
COLO 205 = tested on: COLO 205
DLD-1 = tested on: DLD-1
DMS-114 = tested on: DMS-114
DMS-273 = tested on: DMS-273
EKVX = tested on: EKVX
HCC 2998 = tested on: HCC 2998
HCT-116 = tested on: HCT-116
HCT-15 = tested on: HCT-15
HL-60 = tested on: HL-60
HOP-18 = tested on: HOP-18
HOP-62 = tested on: HOP-62
HOP-92 = tested on: HOP-92
HT-29 = tested on: HT-29
IGROV-1 = tested on: IGROV-1
K562 = tested on: K562
KM-20L2 = tested on: KM-20L2
KM12 = tested on: KM12
LOX IMVI = tested on: LOX IMVI
LXFL 529 = tested on: LXFL 529
M14 = tested on: M14
M19-MEL = tested on: M19-MEL
MOLT-4 = tested on: MOLT-4
Malme-3M = tested on: Malme-3M
NCI-H226 = tested on: NCI-H226
NCI-H23 = tested on: NCI-H23
NCI-H460 = tested on: NCI-H460
NCI-H522 = tested on: NCI-H522
OVCAR-4 = tested on: OVCAR-4
OVCAR-5 = tested on: OVCAR-5
OVCAR-8 = tested on: OVCAR-8
RPMI-8226 = tested on: RPMI-8226
RXF 393 = tested on: RXF 393
SF-268 = tested on: SF-268
SF-295 = tested on: SF-295
SF-539 = tested on: SF-539
SK-MEL-28 = tested on: SK-MEL-28
SK-MEL-2 = tested on: SK-MEL-2
SK-MEL-5 = tested on: SK-MEL-5
SK-OV-3 = tested on: SK-OV-3
SN12C = tested on: SN12C
SNB-19 = tested on: SNB-19
SNB-75 = tested on: SNB-75
SNB-78 = tested on: SNB-78
SW-620 = tested on: SW-620
TK-10 = tested on: TK-10
U-251 = tested on: U-251
UACC-257 = tested on: UACC-257
UACC-62 = tested on: UACC-62
UO-31 = tested on: UO-31
XF498 = tested on: XF498
BT-549 = tested on: BT-549
DU-145 = tested on: DU-145
Hs-578T = tested on: Hs-578T
MCF7 = tested on: MCF7
MDA-MB-231 = tested on: MDA-MB-231
MDA-MB-435 = tested on: MDA-MB-435
MDA-N = tested on: MDA-N
NCI/ADR-RES = tested on: NCI/ADR-RES
OVCAR-3 = tested on: OVCAR-3
PC-3 = tested on: PC-3
SR = tested on: SR
T47D = tested on: T47D

In the case of `CSC(SC)=C1Sc2cccc(Cl)c2S1`, the GI50 (786-0) is reported as 0.0285 mM (inactive), the GI50 (A498) is reported as 0.0764 mM (inactive) and the GI50 (A549) is reported as > 0.1 mM (inactive). The GI50 (ACHN) was 0.074 mM (inactive), the GI50 (CAKI-1) was 0.043 mM (inactive) and the GI50 (CCRF-CEM) was 0.0288 mM (inactive). The GI50 (COLO 205) was 0.0204 mM (inactive), the GI50 (DLD-1) was 0.0452 mM (inactive) and the GI50 (DMS-114) was 0.0264 mM (inactive). For the same compound, the GI50 (DMS-273) was 0.0462 mM (inactive), the GI50 (EKVX) was 0.0354 mM (inactive) and the GI50 (HCC 2998) was 0.0158 mM (inactive). The GI50 (HCT-116) was 0.0415 mM (inactive), the GI50 (HCT-15) was 0.0483 mM and the GI50 (HL-60) was 0.0183 mM (inactive). For the same compound, the GI50 (HOP-18) was > 0.1 mM (inactive), the GI50 (HOP-62) was > 0.1 mM (inactive) and the GI50 (HOP-92) was 0.0158 mM (inactive). For the same compound, the GI50 (HT-29) was 0.029 mM (inactive), the GI50 (IGROV-1) was > 0.1 mM (inactive) and the GI50 (K562) was 0.0239 mM (inactive). For the same compound, the GI50 (KM-20L2) was 0.0369 mM (inactive), the GI50 (KM12) was 0.083 mM (inactive) and the GI50 (LOX IMVI) was 0.0426 mM (inactive). The GI50 (LXFL 529) was 0.0698 mM (inactive), the GI50 (M14) was 0.082 mM (inactive) and the GI50 (M19-MEL) was 0.0435 mM (inactive). The GI50 (MOLT-4) was 0.0318 mM (inactive), the GI50 (Malme-3M) was > 0.1 mM (inactive) and the GI50 (NCI-H226) was > 0.1 mM (inactive). The GI50 (NCI-H23) was 0.0552 mM (inactive), the GI50 (NCI-H460) was > 0.1 mM (inactive) and the GI50 (NCI-H522) was 0.0261 mM (inactive). For the same compound, the GI50 (OVCAR-4) was 0.0684 mM (inactive), the GI50 (OVCAR-5) was 0.0456 mM (inactive) and the GI50 (OVCAR-8) was 0.0925 mM (inactive). The GI50 (RPMI-8226) was 0.0362 mM (inactive), the GI50 (RXF 393) was 0.0437 mM (inactive) and the GI50 (SF-268) was > 0.1 mM (inactive). For the same compound, the GI50 (SF-295) was 0.0565 mM (inactive), the GI50 (SF-539) was 0.0746 mM (inactive) and the GI50 (SK-MEL-28) was > 0.1 mM (inactive). The GI50 (SK-MEL-2) was 0.0179 mM (inactive), the GI50 (SK-MEL-5) was 0.0333 mM (inactive) and the GI50 (SK-OV-3) was 0.0984 mM (inactive). For the same compound, the GI50 (SN12C) was > 0.1 mM (inactive), the GI50 (SNB-19) was 0.0851 mM (inactive) and the GI50 (SNB-75) was 0.0656 mM (inactive). The GI50 (SNB-78) was > 0.1 mM (inactive), the GI50 (SW-620) was 0.039 mM (inactive) and the GI50 (TK-10) was 0.076 mM (inactive). For the same compound, the GI50 (U-251) was 0.0652 mM (inactive), the GI50 (UACC-257) was > 0.1 mM (inactive) and the GI50 (UACC-62) was 0.0951 mM (inactive). The GI50 (UO-31) was 0.0525 mM (inactive) and the GI50 (XF498) was 0.0299 mM (inactive).
For `CNC=O`, the GI50 (786-0) was > 10 mM (inactive), the GI50 (A498) was > 9.71 mM (inactive) and the GI50 (A549) was > 10 mM (inactive). The GI50 (ACHN) was > 10 mM (inactive), the GI50 (BT-549) was > 10 mM (inactive) and the GI50 (CAKI-1) was > 10 mM (inactive). For the same compound, the GI50 (CCRF-CEM) was > 10 mM (inactive), the GI50 (COLO 205) was > 10 mM (inactive) and the GI50 (DLD-1) was > 10 mM (inactive). For the same compound, the GI50 (DMS-114) was > 5.16 mM (inactive), the GI50 (DMS-273) was > 10 mM (inactive) and the GI50 (DU-145) was > 10 mM (inactive). For the same compound, the GI50 (EKVX) was > 10 mM (inactive), the GI50 (HCC 2998) was > 3.98 mM (inactive) and the GI50 (HCT-116) was > 10 mM (inactive). The GI50 (HCT-15) was > 10 mM, the GI50 (HL-60) was > 10 mM (inactive) and the GI50 (HOP-18) was > 10 mM (inactive). The GI50 (HOP-62) was > 3.98 mM (inactive), the GI50 (HOP-92) was > 9.53 mM (inactive) and the GI50 (HT-29) was > 10 mM (inactive). The GI50 (Hs-578T) was > 10 mM (inactive), the GI50 (IGROV-1) was > 10 mM (inactive) and the GI50 (K562) was > 10 mM (inactive). For the same compound, the GI50 (KM-20L2) was > 10 mM (inactive), the GI50 (KM12) was > 10 mM (inactive) and the GI50 (LOX IMVI) was > 9.18 mM (inactive). For the same compound, the GI50 (M14) was > 10 mM (inactive), the GI50 (M19-MEL) was > 10 mM (inactive) and the GI50 (MCF7) was > 10 mM (inactive). For the same compound, the GI50 (MDA-MB-231) was > 10 mM (inactive), the GI50 (MDA-MB-435) was > 10 mM (inactive) and the GI50 (MDA-N) was > 10 mM (inactive). The GI50 (MOLT-4) was > 10 mM (inactive), the GI50 (Malme-3M) was > 10 mM (inactive) and the GI50 (NCI-H226) was > 10 mM (inactive). For the same compound, the GI50 (NCI-H23) was > 10 mM (inactive), the GI50 (NCI-H460) was > 10 mM (inactive) and the GI50 (NCI-H522) was > 10 mM (inactive). For the same compound, the GI50 (NCI/ADR-RES) was > 10 mM (inactive), the GI50 (OVCAR-3) was > 9.31 mM (inactive) and the GI50 (OVCAR-4) was > 10 mM (inactive). For the same compound, the GI50 (OVCAR-5) was > 10 mM (inactive), the GI50 (OVCAR-8) was > 10 mM (inactive) and the GI50 (PC-3) was > 10 mM (inactive). For the same compound, the GI50 (RPMI-8226) was > 10 mM (inactive), the GI50 (RXF 393) was > 10 mM (inactive) and the GI50 (SF-268) was > 10 mM (inactive). For the same compound, the GI50 (SF-295) was > 9.51 mM (inactive), the GI50 (SF-539) was > 10 mM (inactive) and the GI50 (SK-MEL-28) was > 10 mM (inactive). The GI50 (SK-MEL-2) was > 10 mM (inactive), the GI50 (SK-MEL-5) was > 10 mM (inactive) and the GI50 (SK-OV-3) was > 3.98 mM (inactive). For the same compound, the GI50 (SN12C) was > 7.74 mM (inactive), the GI50 (SNB-19) was > 10 mM (inactive) and the GI50 (SNB-75) was 8.15 mM (inactive). The GI50 (SNB-78) was > 7.83 mM (inactive), the GI50 (SR) was > 10 mM (inactive) and the GI50 (SW-620) was > 10 mM (inactive). For the same compound, the GI50 (T47D) was > 10 mM (inactive), the GI50 (TK-10) was > 10 mM (inactive) and the GI50 (U-251) was 9.93 mM (inactive). For the same compound, the GI50 (UACC-257) was > 10 mM (inactive), the GI50 (UACC-62) was > 8.09 mM (inactive) and the GI50 (UO-31) was > 10 mM (inactive). For the same compound, the GI50 (XF498) was > 9.55 mM (inactive).

— ChEMBL document CHEMBL1201862, “PubChem BioAssay data set” (2004)
